Experimental data as given in PMC11040934, “PI3Kγδ inhibition suppresses key disease features in a rat model of asthma” (Respiratory Research, 2024).
Like-named read-outs stand apart in the source and are kept apart here.

Experiments:
[1] = tested on: Brown Norway rats, OVA sensitised and challenged; assay: Rat model of allergic asthma: BAL cellular inflammation; assay type: in vivo, Brown Norway rat; details: BAL 24 hrs after OVA challenge; i.t. dosing
Method: Male, adult, Brown Norway rats were obtained from Charles River Germany at a body weight range of 250-300 g. Animals were housed in temperature controlled individually ventilated cages in groups of 4 with food and water provided ad libitum. Animals underwent acclimatisation for at least 1 week prior to experimentation. Experiments were performed in accordance with the UK Home Office guidelines for animal welfare based on the Animals (Scientific Procedures) Act of 1986 and the ARRIVE guidelines (Fig. E2).
Initially a time course study was performed, followed by a characterisation study with compound & clinical comparator. For both studies, rats were sensitised on day 0, 14 and 21 by an intraperitoneal (i.p.) injection of 4 mL/kg (1 mL/rat) of ovalbumin (OVA;100 μg/rat) in Imject™ Alum (20 mg/rat aluminium hydroxide and 20 mg/rat magnesium hydroxide) or sham sensitised (Saline [Sal] in Imject™ Alum). On day 28 rats were challenged with 1% (w/v) aerosolised OVA in isotonic saline, or sham challenged with isotonic saline (30 mins).
Following blood collection, rats underwent tracheostomy and were cannulated. Rats were lavaged and bronchoalveolar lavage (BAL) fluid was collected (2 × 3 mL RPMI, 30 secs, 70% vol. retained). Slides were prepared using 100 μL of neat BAL, centrifuged (700 rpm, 5 mins, RT, low acceleration; Cytospin 2, Shandon, Runcorn, UK). 800 μL of neat BAL was collected and centrifuged (800×g, 10 mins, 4 °C). Supernatant was collected and stored (− 80 °C), and cell pellet was resuspended (200 μL, RPMI), total leukocytes were attained using a Sysmex XP-300 automated cell counter (Sysmex Ltd., Milton Keynes, UK). Remaining BAL was centrifuged (800×g, 10 mins, 4 °C) and supernatant collected and stored (− 80 °C).
BAL cytospin slides were placed in an automated stainer (Hematek 2000, Ames. Co., USA) and stained with a Modified-Wright stain (Siemens, Germany). Differential cell counts using a light microscope were performed based on morphological criteria were performed to determine percentages of macrophages/monocytes, lymphocytes, neutrophils & eosinophils. Total numbers of each distinct cell type were determined based on total leukocyte numbers.

[2] = Rat plasma protein binding, blood to plasma ratio, unbound fraction in whole blood; assay type: in vitro ADME; details: for fraction unbound: rat
Method: Next, cells were stained with Fc block (550,273, BD bioscience, 1:100; 20 mins, RT), CD45R-B220-PeCy7 (HIS24) (25–0460-82, eBioscience, 1:100), CD43-PE (W3/13) (202,812, Biolegend, 1:100), HIS48-FITC (11–0570-82, eBioscience, 1:100), CD11b-APC (562,102, BD Bioscience, 1:100). Cells were lysed and fixed with BD FACS lysing solution (349,202, BD Biosciences; 45 mins, RT) before FACS acquisition (BD LSRFortessa™). Data were analysed using FlowJo 9.9 software (TreeStar). FACS gating strategy: lymphocytes (FSC-A vs SSC-A), doublets exclusion (FSC-W vs FSC-H), neutrophil identification B220-, HIS48hi, CD43hi, SSC-Ahi, geom. MFI for CD11b on neutrophils. IC50 values were determined in Graph Pad through a nonlinear fit on log transform data: log inhibitor vs response, variable slope, 4 parameters. Fraction unbound in diluted whole blood is calculated using the following equation: fu^′=DF·fub/1+DF-1·fub where fu’ is the fraction unbound in diluted whole blood; fub is the fraction unbound in undiluted whole blood; DF is the dilution factor. Fraction unbound in 100% whole blood (fub) is calculated as fup/BP, where fup is the experimentally determined fraction unbound in undiluted plasma and BP is the experimentally determined blood to plasma partition ratio of drug Table 1.

Rat B/P ratio ([2]; blood to plasma partition ratio): 0.82
Rat fub ([2]; fraction unbound in 100% whole blood, fup/BP): 0.018
fraction unbound ([2]; diluted whole blood (PI3K γ assay), fraction unbound in diluted whole blood, DF 1.05 (γ assay), read-out: fu’): 0.0192
fraction unbound ([2]; plasma, rat plasma, fraction unbound, read-out: Rat ppb (fu, %)): 0.015
fraction unbound ([2]; plasma, undiluted rat plasma, fraction, read-out: Rat plasma fu): 0.015
Compound: Cc1nc(Nc2cccc(N3CCCC3=O)n2)sc1-c1cc2c(c(S(C)(=O)=O)c1)C(=O)N([C@@H](C)C1CC1)C2 [AZD8154]
BAL eosinophils [1]: statistically significant decrease
BAL neutrophils [1]: statistically significant decrease
